The target in one assay is T1, Gal-9N^CRD (Homo sapiens, UniProt O00182).
T1 construct: Gal-9N^CRD (amino acid residues 1–148) were cloned into the vector pETM11; polyHis-tag (TEV-cleavable, from pETM11) (N); made in house; host or cells: Escherichia coli BL21(DE3)GOLD
The assay can be described thus: Isothermal titration calorimetry with Gal-9N CRD. As to conditions: ITC. The assay is classed as binding. The protocol: (§1) The two proteins were cloned into pETM11 expression vector with a N-terminal polyHis-tag that is removable by TEV protease. The recombinant vectors pETM11-gal3^CRD and pETM11-gal9^CRD were used to transform E. coli BL21(DE3)GOLD cells and a single colony was grown overnight at 37 °C in 20 mL of LB medium. In total, 10 mL of the saturated cultures were transferred in 1 L of LB medium and grown at 37 °C to 0.8 OD 600 nm before induction with IPTG (0.5 mM). The inductions were kept for 16 and for 3 h at 22 °C in the expression of Gal-3^CRD and Gal-9N^CRD, respectively. The cells were harvested by centrifugation, re-suspended in 30 mL of lysis buffer (20 mM NaP, 500 mM NaCl, 10 mM imidazole pH 7.0 for Gal-3^CRD and pH 7.5 Gal-9N^CRD), and sonicated. […] Elution was carried out with 300 mM imidazole. Fractions containing the recombinant protein were, finally, applied onto a Superdex 75 10/300 column (GE Healthcare), connected to an AKTA system (GE Healthcare) pre-equilibrated in 20 mM NaP, 150 mM NaCl pH 7.0 for the purification of Gal-3^CRD and pH 7.5 for Gal-9N^CRD.
(§2) The purified proteins were used to perform interaction studies. […] Before all titrations, molecules were dissolved in 20 mM NaP, 150 mM NaCl pH 7.0 (when the molecules were assayed against Gal-3^CRD) or pH 7.5 (for Gal-9N^CRD). The sample cell was filled with 280 μL of Gal-3^CRD or Gal-9N^CRD. Molecules were injected in a volume of 0.2 μL for the first injection and 1 μL for the next 39 injections using an injection interval of 150 s. The control experiment, obtained by injection of the same amount of each molecule in buffer solution, was subtracted to correct for heat production upon molecules dilution. All data were analyzed and fitted using the Microcal Origin version 7.0 software package. Binding enthalpy, dissociation constants, and stoichiometry were determined by fitting the data using a one-set-of-site-binding model.

A further assay deals with galectins. As to conditions: cited from earlier work.
The subject of another assay is Gal-1. Set-up: method as in PMID 27356186. As to conditions: cited from earlier work.
The next assay relates to Gal-3. Particulars: cited from earlier work.
Assay [1] has as its system WM266 cells. The assay can be described thus: Wound healing scratch assay. In kind it is cell-based, human. How it is done: Analysis of cell migration in vitro has been carried out by using the wound healing scratch assay. WM266 cells were grown until they reached a confluent monolayer. After, they were linearly scratched with a pipette tip to generate a cell-free space. […] The area related to each incision was photographed at the time 0, 24, and 48 h using a phase contrast optical microscope with a 10× magnification (Zeiss). The distance between the edges of the incisions was measured by AxioVision Rel. 4.8 software and its mean value was determined as follows: wound closure (%) = 1 − (wound width tx/wound width t0) × 100. Bars depict mean ± SE of three independent experiments.

Another assay has as its system HuVec cells. Put plainly: Angiogenesis (capillary tube formation) assay. The assay is classed as cell-based, human. As to conditions: SeDG at 2.5 mM.
Assay [2] has as its system WM266 cells. Put plainly: Transwell invasion assay. The assay is classed as cell-based, human. As to conditions: 24 h, SeDG.
Description: To analyze cell invasion, the surface of a filter membrane of a transwell insert was coated with extracellular matrix (ECL) (Millipore). Cells (5 × 10^4) suspended in 100 μL of serum-free medium were incubated with various concentrations of molecules and successively they were seeded onto the upper compartment of the transwell, whereas the lower chambers were filled with medium containing 10% FCS [65]. After 24 h, the cells were fixed with 10% formalin and stained with crystal violet. The remaining cells in the upper side of the transwell were removed and cells on the undersurface of the filters, the invaded cells, were visualized and counted from six randomly selected fields (10× magnification) under a phase-contrast microscope with AxioVision Rel.
The subject of the next assay is tumor cell proliferation. Further details: method as in doi:10.1039/D1QO00045D. Particulars: even at 2 mM concentration; cited from earlier work.
The target in another assay is T2, Gal-3^CRD (Homo sapiens, UniProt P17931).
T2 construct: The genes encoding Gal-3^CRD (amino acid residues 112–250); polyHis-tag (TEV-cleavable, from pETM11) (N); made in house; host or cells: Escherichia coli BL21(DE3)GOLD
The assay can be described thus: Isothermal titration calorimetry with Gal-3 CRD. The assay is classed as binding. Particulars: ITC, 298 K. How it is done: as §1, §2

These results are taken from publication PMC8910629, “Design, Synthesis, and Anticancer Activity of a Selenium-Containing Galectin-3 and Galectin-9N Inhibitor” (International Journal of Molecular Sciences, 2022).

Several values for one entry are separate records, joined by “and”; a condition that tells them apart may be missing. Equal entries are not always repeated.

T1 sequence (O00182 1-148): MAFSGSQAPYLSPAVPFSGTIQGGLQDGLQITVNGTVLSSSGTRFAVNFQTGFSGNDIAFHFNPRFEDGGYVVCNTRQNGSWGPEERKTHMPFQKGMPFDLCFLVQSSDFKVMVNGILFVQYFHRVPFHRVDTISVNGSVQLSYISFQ
Description for HuVec cells: Angiogenesis assay was performed by using “In Vitro Angiogenesis Assay Kit” (Merck, Burlington, MA, USA). Briefly, 100 μL of ECL were plated in a pre-cooled 96-well plate and incubated for 1 h at 37 °C. 10,000 cells (HuVec), suspended in EGM-2 [66], incubated with digalactosyl selenides, and seeded onto solidified matrix, according to manufacturer’s instructions. After 5–6 h of incubation at 37 °C, the tube formation was examined by means of a phase contrast optical microscope (Axiovert 200 Zeiss) at 10× magnification and the branch point number was calculated from 3 random fields per each treatment.

`OC[C@H]1O[C@@H](O[C@H]2[C@H](O)[C@@H](O)C(O)O[C@@H]2CO)[C@H](O)[C@@H](O)[C@H]1O` (mixture of isomers) [lactose]: on Gal-9N^CRD (Figure S2), the “binding of lactose (functional integrity of protein)” value was “able to bind lactose”. The “binding affinities to galectins” value in the assay on galectins is “high micromolar range”.
Regarding `CC(=O)N[C@H]1C(O)O[C@H](CO)[C@@H](O[C@@H]2O[C@H](CO)[C@H](O)[C@H](O)[C@H]2O)[C@@H]1O` (some centres unmarked) [LacNAc, N-acetyllactosamine], the “binding affinities to galectins” value with galectins was “high micromolar range”.
On to `OC[C@H]1O[C@@H](S[C@@H]2O[C@H](CO)[C@H](O)[C@H](n3cc(-c4cccc(F)c4)nn3)[C@H]2O)[C@H](O)[C@@H](n2cc(-c3cccc(F)c3)nn2)[C@H]1O` [TD139], for which the binding affinity result in the assay on Gal-1 and in the assay on Gal-3 was “nanomolar affinity” in each case.
Consider `OC[C@H]1O[C@@H](S[C@@H]2O[C@H](CO)[C@H](O)[C@H](O)[C@H]2O)[C@H](O)[C@@H](O)[C@H]1O` [TDG, β-D-galactopyranosyl-(1-1)-thio-β-D-galactopyranoside], for which the affinity to galectins entry in the assay on galectins is “same affinity to galectins as lactose”.
As for digalactosyl selenide [SeDG], the wound closure entry in the assay with WM266 cells [1] (WM266, SeDG at 1 and 2.5 mM, 24 and 48 h, vs untreated) was “decreased the wound closure at all used concentrations and time intervals”. Besides, the “change of capillary tube formation” value in the assay with HuVec cells was “non-statistically significant change”. In addition, the “WM266 invasion through extracellular matrix” value in the assay on WM266 cells [2] is listed as “able to reduce the cells invasion but only at millimolar concentrations”. Besides, on Gal-9N^CRD (298 K), the “n (stoichiometry)” value worked out at 1.01 ± 0.05, the ΔH was -5.64 ± 0.36 kcal/mol and the “−TΔS” value is -1.46 kcal/mol. Besides, the Kd at Gal-9N^CRD (298 K, pH 7.5) was ~20 µM and 22.4 µM. Further, the “effect on tumor cell proliferation” value with tumor cell proliferation is reported as “unable to affect tumor cell proliferation”. Moreover, at Gal-3^CRD, the “n (stoichiometry)” value came out at 1.09 ± 0.05, the ΔG is -6.31 kcal/mol, the ΔH is -4.32 ± 0.27 kcal/mol and the “−TΔS” value is -1.99 kcal/mol. The affinity on Gal-3^CRD (pH 7.0), expressed as Kd, was 20.2 ± 2.2 µM.

B1: Gal-3^CRD: recombinant carbohydrate recognition domain of galectin 3 (residues 112–250), used as cell motility stimulator (protein, UniProt P17931 112-250, looked up, fragment)
chain: GPLIVPYNLPLPGGVVPRMLITILGTVKPNANRIALDFQRGNDVAFHFNPRFNENNRRVIVCNTKLDNNWGREERQSVFPFESGKPFKIQVLVEPDHFKVAVNDAHLLQYNHRVKKLNEISKLGISGDIDLTSASYTMI
modifications: carbohydrate recognition domain
notes: recombinant carbohydrate recognition domain of galectin 3 (residues 112–250), used as cell motility stimulator
B1: in the assay on WM266 cells [1] (WM266, 50 µM Gal-3^CRD), the “cell migration (wound closure) vs control” value is on record as “migrate more than in the control”.
